Source: publication PMC6102643, “Different Benzodiazepines Bind with Distinct Binding Modes to GABAA Receptors” (ACS Chemical Biology, 2018)

How the values were obtained:
[1] = tested on: α1-, α3-, and α5-containing GABAA receptors; set-up: method as in PMID 20727364; conditions: versus SH-053-2′F-S-CH3; cited from earlier work
[2] = tested on: α2-containing GABAA receptors; set-up: method as in PMID 20727364; conditions: versus SH-053-2′F-S-CH3; cited from earlier work
GABAA receptors = tested on: GABAA receptors; set-up: method as in PMID 17392731, PMID 20727364; conditions: cited from earlier work
[3] = target: T1, recombinant rat GABAA receptor α1β3γ2 (Rattus norvegicus, UniProt P18508+P62813); assay: [3H]flunitrazepam radioligand displacement, α1β3γ2; assay type: binding
T1 construct: expressed in transfected cells; host or cells: HEK-293
Procedure: (§1) To exclude a binding behavior unique to α2-containing receptors, we also performed similar radioligand displacement studies on other receptor combinations such as recombinantly expressed rat GABAA receptor subtypes α1β3γ2, α3β3γ2, and α5β3γ2 (see Figure S2).
(§2) Radioligand displacement assays were performed in HEK-293 cells transfected with recombinant rat αxβ3γ2 receptors (x = 1, 2, 3, or 5) using 2 nM [^3H]flunitrazepam and 1 nM to 10 μM investigated compound as described previously.[20] Two-electrode voltage clamp recordings were performed on X. laevis oocytes treated with mRNA for the desired subunit combination at a GABA concentration eliciting 3% of the maximum current.[21]
(§3) Inhibition of [3H]flunitrazepam binding to recombinant α1β3γ2, α2β3γ2, α3β3γ2, α5β3γ2 GABA A
(§4) receptors subtypes. Membranes from HEK 293 cells transfected with GABAA receptor
(§5) subunit combination, (α1β3γ2, α2β3γ2, α3β3γ2, α5β3γ2) were incubated with 2 nM
(§6) [3H]flunitrazepam in the presence of various concentrations of GABAA -R ligands investigated.
(§7) Data shown represent mean ± SEM of three experiments performed in duplicates each. […]

[4] = target: T2, recombinant rat GABAA receptor α2β3γ2 (Rattus norvegicus, UniProt P18508+P23576); assay: [3H]flunitrazepam radioligand displacement, α2β3γ2; assay type: binding; conditions: for displacement of [3H]flunitrazepam at α2β3γ2 (in words): 2 nM [3H]flunitrazepam, HEK-293 membranes
T2 construct: expressed in transfected cells; host or cells: HEK-293
Procedure: To test our predictions, we performed radioligand displacement studies and compared the potencies of our six chiral benzodiazepine ligands for the inhibition of binding of [^3H]flunitrazepam to α2β3γ2 recombinant rat GABAA receptor subtypes (see Figure 4).
Figure 4 Inhibition of binding of [^3H]flunitrazepam to recombinant α2β3γ2 GABAA receptor subtypes. Membranes from HEK-293 cells transfected with the GABAA receptor subunit combination α2β3γ2 were incubated with 2 nM [^3H]flunitrazepam in the presence of various concentrations of the six BZ site ligands. Data shown are the means ± the standard error of the mean of three independent experiments each performed in duplicate.
as §2, §3, §4, §5, §6, §7

[5] = target: T3, recombinant rat GABAA receptor α3β3γ2 (Rattus norvegicus, UniProt P18508+P20236); assay: [3H]flunitrazepam radioligand displacement, α3β3γ2; assay type: binding
T3 construct: expressed in transfected cells; host or cells: HEK-293
Procedure: as §1, §2, §3, §4, §5, §6, §7

[6] = target: T4, recombinant rat GABAA receptor α5β3γ2 (Rattus norvegicus, UniProt P18508+P19969); assay: [3H]flunitrazepam radioligand displacement, α5β3γ2; assay type: binding; conditions: for preference / selectivity for α5-containing receptors: binding affinity at α5 versus other receptor subtypes
T4 construct: expressed in transfected cells; host or cells: HEK-293
Procedure: as §1, §2, §3, §4, §5, §6, §7

[7] = tested on: recombinant rat αxβ3γ2 receptors (x = 1, 2, 3, or 5); assay: [3H]flunitrazepam radioligand displacement, all receptor subtypes tested; assay type: binding; conditions: for displacement of [3H]flunitrazepam in all receptor subtypes (in words): α1β3γ2, α2β3γ2, α3β3γ2, α5β3γ2, even at high micromolar concentrations for non-binders; for subtype selectivity of binding (in words): across α1, α2, α3, α5 subtypes
Procedure: as §1
However, we did observe differences in the potency rank order.
as §2

α2β3γ2-GABAA receptors = target: T5, α2β3γ2-GABAA receptors (Rattus norvegicus, UniProt P18508+P23576); assay: Two-electrode voltage clamp recordings, α2β3γ2 in Xenopus laevis oocytes; assay type: cell-based; conditions: GABA eliciting 3% of maximum current; for activity in the oocyte assay at drug concentrations of ≤1 μM: drug ≤1 μM
T5 construct: expressed in transfected cells; host or cells: Xenopus laevis oocytes (mRNA injected)
From the text: Radioligand displacement assays provide information about the binding of a compound to only a specific binding site. To exclude the possibility that compounds 2-R and 3-R bind at a site different from the [^3H]flunitrazepam binding site (and are therefore unable to compete with the radioligand), we decided to determine the efficacies of all our test compounds using two-electrode voltage clamp recordings on α2β3γ2-mRNA-treated Xenopus laevis oocytes (see Figure 5).
Figure 5 Concentration–response curves of drug-induced enhancement of GABA currents. X. laevis oocytes were treated with mRNA for α2β3γ2-GABAA receptors and studied using two-electrode voltage clamp recordings. GABA-induced currents (3% of maximum) were modulated by addition of drug. Data are means ± the standard error of the mean of three independent experiments.
as §2

[8] = tested on: α1β3γ2, α3β3γ2, and α5β3γ2 GABAA receptors; assay: Two-electrode voltage clamp recordings, other receptor combinations in oocytes; assay type: cell-based; conditions: α1β3γ2, α3β3γ2, α5β3γ2 (and α2β3γ2); Figure S3
Procedure: In addition to the analysis of α2β3γ2-containing GABAA receptors, we also performed similar electrophysiological studies of other receptor combinations such as α1β3γ2, α3β3γ2, and α5β3γ2 (see Figure S3).
as §2

T3 sequence (P20236 29-493): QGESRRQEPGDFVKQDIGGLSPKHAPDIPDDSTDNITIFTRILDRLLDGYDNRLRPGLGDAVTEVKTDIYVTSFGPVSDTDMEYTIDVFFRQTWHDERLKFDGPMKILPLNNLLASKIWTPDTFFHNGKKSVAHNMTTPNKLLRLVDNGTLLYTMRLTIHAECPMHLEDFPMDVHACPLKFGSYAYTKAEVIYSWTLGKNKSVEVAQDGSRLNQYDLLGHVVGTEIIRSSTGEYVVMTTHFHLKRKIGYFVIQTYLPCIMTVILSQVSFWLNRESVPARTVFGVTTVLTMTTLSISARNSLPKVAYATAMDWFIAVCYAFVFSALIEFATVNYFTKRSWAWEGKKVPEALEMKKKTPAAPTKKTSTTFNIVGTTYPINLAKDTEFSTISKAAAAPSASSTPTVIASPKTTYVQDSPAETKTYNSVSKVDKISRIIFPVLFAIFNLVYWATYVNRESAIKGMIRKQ
T3 sequence (P63079 26-473 partner): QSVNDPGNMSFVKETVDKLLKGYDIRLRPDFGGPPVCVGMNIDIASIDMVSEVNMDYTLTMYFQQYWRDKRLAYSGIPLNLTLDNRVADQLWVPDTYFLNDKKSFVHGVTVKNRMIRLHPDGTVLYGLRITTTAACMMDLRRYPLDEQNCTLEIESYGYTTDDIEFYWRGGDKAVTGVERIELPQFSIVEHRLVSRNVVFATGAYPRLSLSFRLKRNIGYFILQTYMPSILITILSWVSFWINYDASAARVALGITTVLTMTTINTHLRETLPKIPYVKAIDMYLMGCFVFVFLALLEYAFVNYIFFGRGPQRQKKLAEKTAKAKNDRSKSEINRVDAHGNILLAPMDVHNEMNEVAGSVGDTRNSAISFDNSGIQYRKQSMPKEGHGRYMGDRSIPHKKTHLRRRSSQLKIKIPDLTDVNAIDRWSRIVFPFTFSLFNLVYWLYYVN
T3 sequence (P18508 39-466): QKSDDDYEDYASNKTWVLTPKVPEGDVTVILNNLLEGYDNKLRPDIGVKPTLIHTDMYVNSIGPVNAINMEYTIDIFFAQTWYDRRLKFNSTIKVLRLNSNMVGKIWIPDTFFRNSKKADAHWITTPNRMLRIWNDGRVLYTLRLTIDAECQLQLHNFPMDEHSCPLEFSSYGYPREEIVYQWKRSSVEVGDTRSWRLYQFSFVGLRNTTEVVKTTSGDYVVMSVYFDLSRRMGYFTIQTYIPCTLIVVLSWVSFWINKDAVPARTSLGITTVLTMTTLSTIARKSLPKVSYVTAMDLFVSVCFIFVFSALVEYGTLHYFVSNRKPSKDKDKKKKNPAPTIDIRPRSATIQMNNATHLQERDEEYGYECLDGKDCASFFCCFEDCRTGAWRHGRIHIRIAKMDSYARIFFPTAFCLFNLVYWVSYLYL
T4 sequence (P19969 32-464 limits assumed): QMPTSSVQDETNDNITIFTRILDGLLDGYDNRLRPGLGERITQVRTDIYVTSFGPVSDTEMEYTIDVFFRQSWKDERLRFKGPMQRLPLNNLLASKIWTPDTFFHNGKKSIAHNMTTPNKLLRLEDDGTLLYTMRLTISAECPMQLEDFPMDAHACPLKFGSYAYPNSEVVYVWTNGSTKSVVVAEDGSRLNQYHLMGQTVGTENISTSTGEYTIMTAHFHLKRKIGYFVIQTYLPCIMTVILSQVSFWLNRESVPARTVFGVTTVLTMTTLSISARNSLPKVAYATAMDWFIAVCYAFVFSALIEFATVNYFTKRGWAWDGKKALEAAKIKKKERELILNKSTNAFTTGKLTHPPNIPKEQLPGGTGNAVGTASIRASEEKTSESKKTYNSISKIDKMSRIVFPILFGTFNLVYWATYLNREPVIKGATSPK
T4 sequence (P63079 26-473 partner): as the sequence (P63079 26-473 partner) above
T4 sequence (P18508 39-466): as the sequence (P18508 39-466) above
T5 sequence (P23576 29-451): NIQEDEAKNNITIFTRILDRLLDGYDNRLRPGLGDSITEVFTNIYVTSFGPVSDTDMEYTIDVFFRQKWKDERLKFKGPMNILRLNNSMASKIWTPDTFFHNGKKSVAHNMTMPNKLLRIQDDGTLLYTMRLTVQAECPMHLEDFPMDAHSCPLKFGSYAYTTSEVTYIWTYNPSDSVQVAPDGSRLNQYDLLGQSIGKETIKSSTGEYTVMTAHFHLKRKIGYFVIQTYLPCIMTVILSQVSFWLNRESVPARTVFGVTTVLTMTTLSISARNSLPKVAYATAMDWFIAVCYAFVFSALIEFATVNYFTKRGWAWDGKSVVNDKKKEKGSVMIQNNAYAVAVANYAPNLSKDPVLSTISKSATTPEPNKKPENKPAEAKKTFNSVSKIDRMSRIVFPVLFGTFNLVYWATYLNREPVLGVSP
T5 sequence (P63079 26-473 partner): as the sequence (P63079 26-473 partner) above
T5 sequence (P18508 39-466): as the sequence (P18508 39-466) above
T2 sequence (P23576 29-451): as the sequence (P23576 29-451) above
T2 sequence (P63079 26-473 partner): as the sequence (P63079 26-473 partner) above
T2 sequence (P18508 39-466): as the sequence (P18508 39-466) above
T1 sequence (P62813 28-455): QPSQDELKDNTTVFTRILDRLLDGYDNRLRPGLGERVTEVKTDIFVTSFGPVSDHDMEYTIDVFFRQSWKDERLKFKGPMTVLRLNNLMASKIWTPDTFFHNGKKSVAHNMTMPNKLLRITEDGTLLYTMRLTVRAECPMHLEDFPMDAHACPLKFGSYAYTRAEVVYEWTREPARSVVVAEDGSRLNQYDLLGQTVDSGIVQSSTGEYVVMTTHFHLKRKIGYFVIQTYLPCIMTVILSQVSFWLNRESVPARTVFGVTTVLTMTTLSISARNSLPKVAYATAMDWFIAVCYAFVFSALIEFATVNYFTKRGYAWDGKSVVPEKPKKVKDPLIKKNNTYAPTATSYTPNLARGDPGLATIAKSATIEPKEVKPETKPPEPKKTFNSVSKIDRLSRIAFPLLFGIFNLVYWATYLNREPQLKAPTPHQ
T1 sequence (P63079 26-473 partner): as the sequence (P63079 26-473 partner) above
T1 sequence (P18508 39-466): as the sequence (P18508 39-466) above

Row | SMILES | lower affinity compared to the S isomer, α1-, α3-, and α5-containing receptors [1] | lower affinity compared to the S isomer, α2-containing receptors [2] | binding to GABAA receptors (in words) (GABAA receptors) | Ki [3] | Ki [4] | displacement of [3H]flunitrazepam at α2β3γ2 (in words) [4] | Ki [5] | Ki [6] | preference / selectivity for α5-containing receptors [6] | displacement of [3H]flunitrazepam in all receptor subtypes (in words) [7] | modulation of GABA-induced chloride ion flux (in words) (α2β3γ2-GABAA receptors) | modulation of GABA currents in all receptor subtypes (in words) [8] | modulation of GABA-induced currents at 10 μM (α2β3γ2-GABAA receptors; drug 10 μM) | activity in the oocyte assay at drug concentrations of ≤1 μM (α2β3γ2-GABAA receptors) | subtype selectivity of binding (in words) [7]
1 | C#Cc1ccc2c(c1)C(c1ccccc1F)=N[C@H](C)c1c(C(=O)OCC)ncn1-2 [SH-053-2′F-R-CH3] | 3–5 fold | 30 fold | high affinity | – | – | – | – | – | – | – | – | – | – | – | –
2 | C#Cc1ccc2c(c1)C(c1ccccc1F)=N[C@@H](C)c1c(C(=O)OCC)ncn1-2 [SH-053-2′F-S-CH3] | – | – | high affinity | – | – | – | – | – | – | – | – | – | – | – | –
3 | CCOC(=O)c1ncn2c1[C@@H](C)N=C(c1ccccc1F)c1cc(Br)ccc1-2 [compound 1-R] | – | – | – | 273 ± 41 nM | 253 ± 31 nM | retained its potential to displace the radioligand | 501 ± 79 nM | 56 ± 8 nM | ~5 fold | potently replaced | positive allosteric modulators | positive modulation | – | – | –
4 | CCOC(=O)c1ncn2c1[C@H](C)N=C(c1ccccc1F)c1cc(Br)ccc1-2 [compound 1-S] | – | – | – | 190 ± 55 nM | 67 ± 9 nM | intermediate to high binding affinities | 136 ± 24 nM | 17 ± 5 nM | > 4 fold | potently replaced | positive allosteric modulators | positive modulation | – | – | –
5 | C#Cc1ccc2c(c1)C(c1ccccc1)=N[C@H](C)c1nnc(C)n1-2 [compound 2-R] | – | – | – | > 10000 nM | > 10000 nM | inactive | > 10000 nM | > 10000 nM | – | failed to displace | – | mainly modulatory silent | slight positive modulation | complete loss of activity | –
6 | C#Cc1ccc2c(c1)C(c1ccccc1)=N[C@@H](C)c1nnc(C)n1-2 [compound 2-S] | – | – | – | 663 ± 21 nM | 164 ± 15 nM | intermediate to high binding affinities | 656 ± 110 nM | 80 ± 4 nM | – | potently replaced | positive allosteric modulators | positive modulation | – | – | significant higher binding affinities in α2 and α5 GABAAR subtypes than in α1 and α3 subtypes
7 | C[C@H]1N=C(c2ccccc2)c2cc(Br)ccc2NC1=O [compound 3-R] | – | – | – | > 10000 nM | > 10000 nM | inactive | > 10000 nM | > 10000 nM | – | failed to displace | – | mainly modulatory silent | – | complete loss of activity | –
8 | C[C@@H]1N=C(c2ccccc2)c2cc(Br)ccc2NC1=O [compound 3-S] | – | – | – | 64 ± 2 nM | 61 ± 10 nM | intermediate to high binding affinities | 102 ± 7 nM | 31 ± 5 nM | – | potently replaced | positive allosteric modulators | positive modulation | – | – | low subtype selectivity
